Data taken from patent publication EP1566447A1, “Glimepiride- and insulin-induced glycosylphosphatidylinositol-specific phospholipase C regulation” (priority 2004, dated 2005).

Legend:
[1] = test system: rat adipocytes; experiment: isoproterenol-induced lipolysis measured as release of NBD-FA; format: cell-based; settings: 50 µM; Fig. 9 Panels A, B
Experimental: Electroporation was performed as described in "Müller, G. et al., (2000) Mol. Cell. Biol. 20: 4708-4723". Lipolysis was determined as release of glycerol or fluorescent NBD-FA from prelabeled and isoproterenol-stimulated adipocytes as described in "Müller, G. et al., (2003) Biochimie 85: 1245-1256". Gce1 was detected by photolabeling of solubilized plasma membranes or hc/IcDIGs (10-50 µg protein) with 8-N3-[^32P]cAMP and subsequent phosphorimaging as described in "Müller, G. et al., (1994) Biochemistry 33: 12149-12159". 5'-Nuc, aP and AChE activities were measured according to "Eliakim, R. et al., (1990) Biochim. Biophys. Acta […]". Protein was determined using the BCA protein determination kit from Pierce (Rockford, IL) and BSA as calibration standard. SDS-PAGE was performed using precast gels (Novex, San Diego, CA; 10 % Bis-Tris resolving gel, morpholinopropanesulfonic acid-SDS running buffer). Lumiimages were evaluated on a Lumilmager using Lumilmager software (Roche Diagnostics). Phosphor- and fluorescence images were processed and quantified using the Storm 860 Phosphorlmager system (Molecular Dynamics, Gelsenkirchen, Germany). Figures were constructed using the Adobe Photoshop software (Adobe Systems, Mountain View, CA). […]

[2] = test system: GPI-PLC
[3] = test system: patients with type 2 diabetes; settings: cited from earlier work
[4] = test system: GPI-PLC of hcDIGs from rat adipocytes; experiment: adipocyte GPI-PLC assay (cleavage of AChE, TX-114 partitioning); format: biochemical; settings: 1 mM; hcDIGs from rat adipocytes
Experimental: Biophys. […] Each reaction mixture was subjected to TX-114 partitioning (see below).
After incubation for 1 h on ice, the mixture was layered onto a cushion of 0.4 ml of 0.25 M sucrose and 25 mM Tris/HCl (pH 7.4) on ice.
Cleavage rate was calculated from the amount of hydrophilic AChE and aP activity recovered with the TX-114-depleted phase upon TX-114 partitioning.

Compound | effect on the glimepiride-induced reduction of NBD-FA release [1] | activation of GPI-PLC ([2]; direct incubation of hcDIGs from untreated adipocytes, Fig. 4 Panel A) | stimulation of GPI-PLC activity ([2]; hcDIGs prepared from pretreated adipocytes, Fig. 4 Panel C, 20 µM) [fold] | hypoglycaemia occurred in patients ([3]; monotherapy, treated for ≤1 year) [%] | effective dosage range ([3]; patients with type 2 diabetes) [mg/day] | inhibition % at 1 mM [4] [%]
CCC1=C(C)CN(C(=O)NCCc2ccc(S(=O)(=O)NC(=O)N[C@H]3CC[C@H](C)CC3)cc2)C1=O [Glimepiride, glimepiride] | completely abrogated | up to 4 fold | 3 | 10 to 20 | 0.5 to 8 | 
CCCCCCCCCCCCP(=O)(OC)O[C@@H]1[C@H](O)[C@H](O)[C@@H](O)[C@H](O)[C@H]1O (stereo partly drawn) [GPI-2349, myo-inositol-1-O-dodecylphosphonic acid methylester] |  |  |  |  |  | 27 ± 6
